Data: patent US11845747B2, “Ester and carbonate pyrimidine compounds as JAK kinase inhibitors” (priority 2019, dated 2023)

Key:
JAK2 = molecular target: T1, JAK2 (Homo sapiens, UniProt O60674); assay: Biochemical LanthaScreen JAK2 kinase assay; conditions: Km ATP 3 μM; pKi from pIC50 by Cheng-Prusoff; read-out: JAK 2 (pKi) (converted)
T1 construct: GST; purchased Life Technologies
Protocol: (§1) Assay 1: Biochemical JAK and Tyk2 Kinase Assays A panel of four LanthaScreen JAK biochemical assays (JAK1, 2, 3 and Tyk2) were carried in a common kinase reaction buffer (50 mM HEPES, pH 7.5, 0.01% Brij-35, 10 mM MgCl2, and 1 mM EGTA). Recombinant GST-tagged JAK enzymes and a GFP-tagged STAT1 peptide substrate were obtained from Life Technologies. Serially or discretely diluted compounds were pre-incubated with each of the four JAK enzymes and the substrate in white 384-well microplates (Corning) at ambient temperature for 1 h. ATP was subsequently added to initiate the kinase reactions in 10 μL total volume, with 1% DMSO. […] Kinase reactions were allowed to proceed for 1 hour at ambient temperature before a 10 μL preparation of EDTA (10 mM final concentration) and Tb-anti-pSTAT1 ([…]) antibody (Life Technologies, 2 nM final concentration) in TR-FRET dilution buffer (Life Technologies) was added. The plates were allowed to incubate at ambient temperature for 1 h before being read on the EnVision reader (Perkin Elmer). Emission ratio signals (520 nm/495 nm) were recorded and utilized to calculate the percent inhibition values based on DMSO and background controls. For dose-response analysis, percent inhibition data were plotted vs. compound concentrations, and IC50 values were determined from a 4-parameter robust fit model with the Prism software (GraphPad Software). Results were expressed as pIC50 (negative logarithm of IC50) and subsequently converted to pKi (negative logarithm of dissociation constant, Ki) using the Cheng-Prusoff equation.

Tyk2 = molecular target: T2, Tyk2 (Homo sapiens, UniProt P29597); assay: Biochemical LanthaScreen Tyk2 kinase assay; conditions: Km ATP 10 μM; pKi from pIC50 by Cheng-Prusoff; read-out: Tyk 2 (pKi) (converted)
T2 construct: GST; purchased Life Technologies
T2 sequence (P29597 whole entry): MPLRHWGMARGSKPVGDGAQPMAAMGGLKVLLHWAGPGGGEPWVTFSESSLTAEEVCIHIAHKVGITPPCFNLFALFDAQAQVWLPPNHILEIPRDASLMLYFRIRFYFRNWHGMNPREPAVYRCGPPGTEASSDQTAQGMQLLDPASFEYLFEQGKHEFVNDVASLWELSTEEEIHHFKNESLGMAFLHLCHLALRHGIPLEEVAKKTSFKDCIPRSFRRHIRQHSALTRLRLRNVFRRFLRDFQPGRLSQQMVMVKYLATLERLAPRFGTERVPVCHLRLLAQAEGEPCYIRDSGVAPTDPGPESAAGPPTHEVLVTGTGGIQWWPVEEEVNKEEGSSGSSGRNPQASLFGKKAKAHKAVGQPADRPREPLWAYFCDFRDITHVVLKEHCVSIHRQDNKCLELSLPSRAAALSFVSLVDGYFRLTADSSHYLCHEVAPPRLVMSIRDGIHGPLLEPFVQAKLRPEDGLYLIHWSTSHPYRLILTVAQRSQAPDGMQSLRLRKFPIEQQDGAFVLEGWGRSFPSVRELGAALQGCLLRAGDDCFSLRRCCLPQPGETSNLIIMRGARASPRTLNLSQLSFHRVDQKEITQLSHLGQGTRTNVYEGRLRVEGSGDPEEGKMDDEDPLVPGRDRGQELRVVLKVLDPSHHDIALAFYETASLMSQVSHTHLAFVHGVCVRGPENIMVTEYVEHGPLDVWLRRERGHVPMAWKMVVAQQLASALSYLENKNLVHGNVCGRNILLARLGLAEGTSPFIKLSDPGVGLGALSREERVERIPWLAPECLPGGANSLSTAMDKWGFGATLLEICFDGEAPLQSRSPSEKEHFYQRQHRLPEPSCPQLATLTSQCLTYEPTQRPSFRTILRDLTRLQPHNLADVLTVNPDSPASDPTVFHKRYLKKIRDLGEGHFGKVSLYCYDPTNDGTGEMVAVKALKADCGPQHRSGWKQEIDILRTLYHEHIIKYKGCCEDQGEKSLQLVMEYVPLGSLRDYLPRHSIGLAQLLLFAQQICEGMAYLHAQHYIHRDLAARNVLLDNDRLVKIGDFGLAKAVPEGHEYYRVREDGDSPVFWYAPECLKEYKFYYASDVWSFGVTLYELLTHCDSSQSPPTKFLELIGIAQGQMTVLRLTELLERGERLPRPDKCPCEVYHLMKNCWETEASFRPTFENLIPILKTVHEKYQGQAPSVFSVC
Protocol: as §1

[1] = In vitro skin S9 metabolic stability assay (mouse); format: in vitro ADME; conditions: mouse, s9, pH 7.4
Protocol: (§2) Assay 6: In Vitro Skin S9 Metabolic Stability Assay
(§3) The objective of this assay was to assess the metabolic stability of compounds in human and mouse skin S9 sub-fraction. Human and mouse skin S9 sub-fractions obtained from Bioreclamation-IVT (Baltimore, Md.) were thawed on ice and diluted into 0.1M potassium phosphate buffer pH 7.4 to yield final incubation protein concentrations of 1.0 mg/mL. Test compounds (10 mM) were diluted into phosphate buffer to yield final incubation concentrations of 0.2 μM and 2.0 μM. Incubations were conducted at 37° C. temperature following addition of 1 mM NADPH and test aliquots were taken at time points 0, 5, 10, 20, 30 and 45 minutes. Each aliquot was crashed into water with 3% formic acid and 1 μM internal standard. The resulting samples were injected onto an LC-MS/MS system for analysis.
(§4) For each incubation, the peak area of the analytes in each t0 aliquot was set to 100% and the peak areas from subsequent time point aliquots were converted to percentage of parent compound remaining relative to t0. The percentage of parent compound remaining at each time point was converted to natural log scale and plotted versus time in minutes to determine a disappearance half-life.

[2] = In vitro skin S9 metabolic stability assay (human); format: in vitro ADME; conditions: human, s9, pH 7.4
Protocol: as §2, §3, §4

Caco-2 cell monolayers = assay: Caco-2 permeation assay; format: in vitro ADME; conditions: A to B, 5 μM compound, with Verapamil 25 μM, 120 minutes
Protocol: Assay 8: Caco-2 Permeation Assay The Caco-2 permeation assay was used as an indication of skin permeability. The assay measures the rate at which test compounds in solution permeate a cell monolayer (designed to mimic the tight junction of human small intestinal monolayers). CacoReady 24-well transwell plates were obtained from […], Calif.). The compounds were evaluated at a concentration of 5 μM from 10 mM DMSO stock solutions in duplicate (n=2). The passive permeability of the compounds tested was evaluated using Caco-2 cell monolayers along with Verapamil (25 μM) to inhibit P-gp transport proteins in the apical to basolateral (A-B) direction. The experiment was conducted in a 37° C., 5% CO2 incubator. Caco-2 culture media consisted of standard filtered DMEM, FCS 10%, L-Glutamine 1% and PenStrep 1%. Basal assay plate was prepared by adding 750 μL of transport buffer to A-B wells. A CacoReadyTM plate was prepared by removing the Caco-2 media from the apical wells and replacing with fresh transport media (200 μL repeated for a total of 3 washes). Blank media (200 μL) was then replaced with diluted compound for A-B wells. To begin the incubation, the basal plate was removed from the incubator and the apical section was added on top of it. […] The permeation coefficient (Kp, mean A to B+Verapamil […]) in cm/sec was calculated as dQ (flux)/(dt×Area×concentration).

T1 sequence (O60674 whole entry): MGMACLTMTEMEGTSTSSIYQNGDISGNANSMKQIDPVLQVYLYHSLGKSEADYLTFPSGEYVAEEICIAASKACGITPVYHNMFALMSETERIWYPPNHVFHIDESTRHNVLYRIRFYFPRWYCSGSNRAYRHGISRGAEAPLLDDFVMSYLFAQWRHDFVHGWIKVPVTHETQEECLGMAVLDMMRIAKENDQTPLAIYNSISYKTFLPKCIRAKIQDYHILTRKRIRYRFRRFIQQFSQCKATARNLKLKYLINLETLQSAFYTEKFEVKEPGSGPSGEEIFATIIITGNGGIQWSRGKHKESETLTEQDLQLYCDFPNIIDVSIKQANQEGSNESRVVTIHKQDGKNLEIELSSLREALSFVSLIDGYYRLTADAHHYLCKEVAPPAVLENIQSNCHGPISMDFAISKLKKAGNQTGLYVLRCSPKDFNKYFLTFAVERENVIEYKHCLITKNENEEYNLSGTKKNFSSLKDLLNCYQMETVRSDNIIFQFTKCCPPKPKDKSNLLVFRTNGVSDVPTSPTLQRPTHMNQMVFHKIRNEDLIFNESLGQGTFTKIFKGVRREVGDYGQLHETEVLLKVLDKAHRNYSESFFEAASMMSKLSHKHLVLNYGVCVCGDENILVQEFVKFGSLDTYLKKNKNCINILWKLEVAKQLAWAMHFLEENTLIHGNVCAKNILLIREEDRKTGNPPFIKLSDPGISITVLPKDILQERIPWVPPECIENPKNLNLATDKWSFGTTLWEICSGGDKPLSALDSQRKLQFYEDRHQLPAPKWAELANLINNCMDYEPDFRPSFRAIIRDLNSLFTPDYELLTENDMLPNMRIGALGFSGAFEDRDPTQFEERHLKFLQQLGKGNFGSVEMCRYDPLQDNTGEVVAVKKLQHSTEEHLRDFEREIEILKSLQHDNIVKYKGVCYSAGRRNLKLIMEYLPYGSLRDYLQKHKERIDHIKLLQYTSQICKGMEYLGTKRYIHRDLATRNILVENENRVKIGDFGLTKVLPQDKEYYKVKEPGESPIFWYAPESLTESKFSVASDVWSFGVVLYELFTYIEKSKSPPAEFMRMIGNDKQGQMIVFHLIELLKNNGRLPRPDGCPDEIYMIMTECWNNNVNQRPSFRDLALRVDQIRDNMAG

Row | Compound | Ki (JAK2) [nM] | Ki (Tyk2) [nM] | half-life at 0.2 μM [1] [min] | half-life at 2 μM [1] [min] | half-life at 0.2 μM [2] [min] | half-life at 2 μM [2] [min] | Cacoverap Kp (Caco-2 cell monolayers) [×10⁻⁶ cm/s]
1 | CCS(=O)(=O)N1[C@@H]2CCC[C@H]1C[C@H](N(C)c1nc(COC(C)=O)c(F)c(Nc3cc(C)[nH]n3)n1)C2 [Compound 1, (2-(((1R,3s,5S)-9-(ethylsulfonyl)-9-azabicyclo[3.3.1]nonan-3-yl)(methyl)amino)-5-fluoro-6-((5-methyl-1H-pyrazol-3-yl)amino)pyrimidin-4-yl)methyl acetate] | ≤ 0.1 | ≤ 0.1 | < 15 | 15 to 30 | > 30 | > 30 | –
2 | CCC(=O)OCc1nc(N(C)[C@@H]2C[C@H]3CCC[C@@H](C2)N3S(=O)(=O)CC)nc(Nc2cc(C)[nH]n2)c1F [Compound 2, (2-(((1R,3s,5S)-9-(ethylsulfonyl)-9-azabicyclo[3.3.1]nonan-3-yl)(methyl)amino)-5-fluoro-6-((5-methyl-1H-pyrazol-3-yl)amino)pyrimidin-4-yl)methyl propionate] | – | – | 15 to 30 | 15 to 30 | > 30 | > 30 | –
3 | CCCC(=O)OCc1nc(N(C)[C@@H]2C[C@H]3CCC[C@@H](C2)N3S(=O)(=O)CC)nc(Nc2cc(C)[nH]n2)c1F [Compound 3, (2-(((1R,3s,5S)-9-(ethylsulfonyl)-9-azabicyclo[3.3.1]nonan-3-yl)(methyl)amino)-5-fluoro-6-((5-methyl-1H-pyrazol-3-yl)amino)pyrimidin-4-yl)methyl butyrate] | – | – | < 15 | < 15 | > 30 | > 30 | –
4 | CCCCC(=O)OCc1nc(N(C)[C@@H]2C[C@H]3CCC[C@@H](C2)N3S(=O)(=O)CC)nc(Nc2cc(C)[nH]n2)c1F [Compound 4, (2-(((1R,3s,5S)-9-(ethylsulfonyl)-9-azabicyclo[3.3.1]nonan-3-yl)(methyl)amino)-5-fluoro-6-((5-methyl-1H-pyrazol-3-yl)amino)pyrimidin-4-yl)methyl pentanoate] | – | – | < 15 | < 15 | 15 to 30 | > 30 | –
5 | CCS(=O)(=O)N1[C@@H]2CCC[C@H]1C[C@H](N(C)c1nc(COC(=O)OC3CCCCC3)c(F)c(Nc3cc(C)[nH]n3)n1)C2 [Compound 6, cyclohexyl ((2-(((1R,3s,5S)-9-(ethylsulfonyl)-9-azabicyclo[3.3.1]nonan-3-yl)(methyl)amino)-5-fluoro-6-((5-methyl-1H-pyrazol-3-yl)amino)pyrimidin-4-yl)methyl) carbonate] | 0.1 to 1 | 1 to 10 | < 15 | < 15 | > 30 | > 30 | –
6 | CCS(=O)(=O)N1[C@@H]2CCC[C@H]1C[C@H](N(C)c1nc(COC(=O)C3CCOCC3)c(F)c(Nc3cc(C)[nH]n3)n1)C2 [Compound 7, (2-(((1R,3s,5S)-9-(ethylsulfonyl)-9-azabicyclo[3.3.1]nonan-3-yl)(methyl)amino)-5-fluoro-6-((5-methyl-1H-pyrazol-3-yl)amino)pyrimidin-4-yl)methyl tetrahydro-2H-pyran-4-carboxylate] | ≤ 0.1 | ≤ 0.1 | – | – | – | – | –
7 | CCS(=O)(=O)N1[C@@H]2CCC[C@H]1C[C@H](N(C)c1nc(COC(=O)OC3CCOCC3)c(F)c(Nc3cc(C)[nH]n3)n1)C2 [Compound 9, (2-(((1R,3s,5S)-9-(ethylsulfonyl)-9-azabicyclo[3.3.1]nonan-3-yl)(methyl)amino)-5-fluoro-6-((5-methyl-1H-pyrazol-3-yl)amino)pyrimidin-4-yl)methyl (tetrahydro-2H-pyran-4-yl) carbonate] | ≤ 0.1 | 0.1 to 1 | – | – | – | – | –
8 | CCS(=O)(=O)N1[C@@H]2CCC[C@H]1C[C@H](N(C)c1nc(CO)c(F)c(Nc3cc(C)[nH]n3)n1)C2 [Compound M, (2-(((1R,3s,5S)-9-(ethylsulfonyl)-9-azabicyclo[3.3.1]nonan-3-yl)(methyl)amino)-5-fluoro-6-((5-methyl-1H-pyrazol-3-yl)amino)pyrimidin-4-yl)methanol] | ≤ 0.1 | 0.1 to 1 | – | – | – | – | 42.3
